Data from patent US20190343953A1, “ANTI-CANCER TREATMENTS WITH AN ANTI-MUC1 ANTIBODY AND AN ERBB INHIBITOR” (Glycotope GmbH, priority 2017, published 2019).

Tested on: cancer cells
Experiment: Cytotoxicity assay of SeeloMab (PankoMab-ADC), statements for the cancer cells in general
Type: cell-based, human
Conditions: pretreated for 3 days vs non-pretreated
Description: The cytotoxic potential of a TA-MUC1 targeting antibody drug conjugate (ADC) was investigated using SeeloMab, the ADC format of PankoMab with a microtubule inhibitor as toxin. Therefore, cells were pre-incubated for 3 days with an optimum concentration of EGFR inhibitor. […] After 3 days the antigen expression was confirmed by flow cytometry and cells were seeded at equal cell density (5000 cells/well) into the wells of a microtiter plate. Cells were incubated with different concentrations of SeeloMab, an isotype matched control ADC and unconjugated PankoMab served as negative control. After 4 days viability of the cells was measured using Celltiter-Glo Luminescent Cell Viability Assay (Promega) and percent proliferation was calculated relative to medium control.

Question: Which “reduction of proliferation by anti-TA-MUC1 ADC when cancer cells were pretreated with EGFR inhibitor” value does the source give for `C#Cc1cccc(Nc2ncnc3cc(OCCOC)c(OCCOC)cc23)c1` [Erlotinib] here?
Answer: Its value is “significantly stronger”.
